Test results reported in patent US9687499B2, “Method using heat shock protein inhibitor for treating hepatitis and hepatoma” (National Tsing Hua University, priority 2014, dated 2017).

What was measured:
[1] = test system: liver cell line Pre-S2; test: Toxicity to liver cells, Pre-S2 cell line; format: cell-based
[2] = test system: hepatitis B virus; test: HBsAg in blood serum of AdHBV-infected mice; format: in vivo; conditions: intravenous, 20 mg/ml, FIG. 4a
Description: Intravenous injection of […] and Pifithrin-μ can successfully reduce the hepatitis B surface antigen (HBsAg) in the blood serum of mice, wherein the mice are continuously infected by hepatitis B virus in an adenovirus genome transfer technology (AdHBV). Each group has three mice. The experiment design is as follows: inject AdHBV into mice continuously for 28 days; respectively inject a mock medication, 20 mg/ml […], and 20 mg/ml Pifithrin-μ into the mice intravenously; collect the samples of the blood serum and livers for serological and pathological analyses.

[3] = Liver function test (GPT) in mice; format: in vivo; conditions: FIG. 4b
From the text: GPT (Glutamate Pyruvate Transaminase) is used to monitor the liver function of the mice.

[4] = test system: liver cell line WT; test: Toxicity to liver cells, WT cell line
[5] = test system: liver cell line SNAP; test: Toxicity to liver cells, SNAP cell line
[6] = test system: hepatitis B virus; test: HBsAg-positive liver cells in liver sections of mice; conditions: month-long treatment, FIG. 5b
[7] = test system: LHBs-positive cells (SNAP cells 505) expressing HBV-LHBs; test: Selective cytotoxicity in co-culture, LHBs-positive cells; format: cell-based; conditions: 40 μM
Description: (§1) With elapse of time, use a microscope to observe the selective cytotoxicity of VER-155008 to the cells expressing HBV-LHBs (hepatitis B virus large S protein). The LHBs-positive cells (SNAP cells 505) are labeled by green fluorescence and co-cultured with unlabeled parental NeHepLxHT. The group of the mixed cells is processed with 40 μM VER-155008 and then periodically recorded at time points separated by a longer interval of time for 48 hours. The observed cellular quantities of the unlabeled cells (parental cells) and the green-labeled cells (LHBs-infected cells) are used to reveal typical cellular apoptosis.

[8] = test system: parental NeHepLxHT; test: Selective cytotoxicity in co-culture, parental cells; format: cell-based; conditions: 40 μM, 24 hours, FIG. 3b
Description: as §1, with “[…].” for “With elapse of time, use a microscope to observe the selective cytotoxicity of VER-155008 to the cells expressing HBV-LHBs (hepatitis B virus large S protein).”, “apoptosis. […].” for “apoptosis.”

[9] = molecular target: HSP90 (Homo sapiens, UniProt P08238); conditions: selectivity over HSP90; cited from earlier work
HSP90, sequence (P08238 whole entry, species assumed): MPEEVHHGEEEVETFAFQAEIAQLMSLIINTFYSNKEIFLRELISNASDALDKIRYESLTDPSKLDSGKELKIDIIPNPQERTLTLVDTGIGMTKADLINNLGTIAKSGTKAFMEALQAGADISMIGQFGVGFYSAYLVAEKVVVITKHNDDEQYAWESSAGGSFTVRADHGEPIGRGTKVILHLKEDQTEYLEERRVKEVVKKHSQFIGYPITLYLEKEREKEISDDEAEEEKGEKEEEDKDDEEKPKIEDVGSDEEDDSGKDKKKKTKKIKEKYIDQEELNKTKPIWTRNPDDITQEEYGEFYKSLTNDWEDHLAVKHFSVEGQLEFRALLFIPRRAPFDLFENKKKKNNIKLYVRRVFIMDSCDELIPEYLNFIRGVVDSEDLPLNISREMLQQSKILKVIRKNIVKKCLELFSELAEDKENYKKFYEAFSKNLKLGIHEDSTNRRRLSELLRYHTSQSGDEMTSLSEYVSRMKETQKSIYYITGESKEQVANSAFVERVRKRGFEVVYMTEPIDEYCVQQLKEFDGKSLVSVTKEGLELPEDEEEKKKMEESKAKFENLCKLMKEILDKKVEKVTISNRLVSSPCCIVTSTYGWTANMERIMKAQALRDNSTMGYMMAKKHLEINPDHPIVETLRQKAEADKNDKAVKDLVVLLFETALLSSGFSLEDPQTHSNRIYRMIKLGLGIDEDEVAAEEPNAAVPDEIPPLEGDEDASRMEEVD

SMILES	IC50 [1] [µM]	levels of HBsAg in the blood serums [2]	levels of GPT in the blood serums [3]	IC50 [4] [µM]	IC50 [5] [µM]	HBcAg-positive liver cells ([6]; high dosage (40 mg/Kg))	death of LHBs-positive cells ([7]; 24 hours, FIG. 3b)	death of LHBs-infected cells ([7]; 48 hours, FIG. 3c)	survival of parental cells [8]	effect to HSP70 and GRP78 relative to effect to HSP90 [9]	HBsAg-positive liver cells ([6]; low dosage (20 mg/Kg) and high dosage (40 mg/Kg))
NS(=O)(=O)C#Cc1ccccc1 [Pifithrin-μ, 2-Phenylethynesulfonamide]	11.8	obviously reduced	do not vary obviously	12.2	17.5	kill a portion of the HBcAg-positive liver cells					
N#Cc1ccc(COC[C@H]2O[C@@H](n3c(NCc4ccc(Cl)c(Cl)c4)nc4c(N)ncnc43)[C@H](O)[C@@H]2O)cc1 [VER-155008, 5′-O-[(4-Cyanophenyl)methyl]-8-[[(3,4-dichlorophenyl)methyl]amino]-adenosine]	18.8	obviously reduced	do not vary obviously	18	36.2		many of the LHBs-positive cells are dead	almost all die	still alive	over 100 times	different effects in decreasing the HBsAg-positive liver cells
